Test results published in patent publication US20190031599A1, “INDANE DERIVATIVES AS MGLUR7 MODULATORS” (Takeda Pharmaceutical Company Limited, priority 2016, published 2019).

target: T1, human mGluR7 (Homo sapiens, UniProt Q14831); experiment: mGluR7 assay: CRE-directed luciferase reporter gene assay, reduction of forskolin stimulated cAMP production; format: cell-based; details: stable CHO cell line expressing the CRE-luc reporter and human mGluR7 genes; decrease of forskolin stimulated luminescence; 10-point concentration-response, duplicate wells
T1 construct: expressed in transfected cells
Procedure, shortened: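 Stable CHO cell line co-expressing human mGluR7 and a CRE-luciferase reporter; compounds preincubated 15 min at 37 °C, then forskolin added and incubated 5 h at 37 °C. 10-point half-log concentration-response in duplicate, normalised to forskolin-alone (max) and forskolin plus tool mGluR7 agonist (min) controls.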

T1 sequence (Q14831 35-915): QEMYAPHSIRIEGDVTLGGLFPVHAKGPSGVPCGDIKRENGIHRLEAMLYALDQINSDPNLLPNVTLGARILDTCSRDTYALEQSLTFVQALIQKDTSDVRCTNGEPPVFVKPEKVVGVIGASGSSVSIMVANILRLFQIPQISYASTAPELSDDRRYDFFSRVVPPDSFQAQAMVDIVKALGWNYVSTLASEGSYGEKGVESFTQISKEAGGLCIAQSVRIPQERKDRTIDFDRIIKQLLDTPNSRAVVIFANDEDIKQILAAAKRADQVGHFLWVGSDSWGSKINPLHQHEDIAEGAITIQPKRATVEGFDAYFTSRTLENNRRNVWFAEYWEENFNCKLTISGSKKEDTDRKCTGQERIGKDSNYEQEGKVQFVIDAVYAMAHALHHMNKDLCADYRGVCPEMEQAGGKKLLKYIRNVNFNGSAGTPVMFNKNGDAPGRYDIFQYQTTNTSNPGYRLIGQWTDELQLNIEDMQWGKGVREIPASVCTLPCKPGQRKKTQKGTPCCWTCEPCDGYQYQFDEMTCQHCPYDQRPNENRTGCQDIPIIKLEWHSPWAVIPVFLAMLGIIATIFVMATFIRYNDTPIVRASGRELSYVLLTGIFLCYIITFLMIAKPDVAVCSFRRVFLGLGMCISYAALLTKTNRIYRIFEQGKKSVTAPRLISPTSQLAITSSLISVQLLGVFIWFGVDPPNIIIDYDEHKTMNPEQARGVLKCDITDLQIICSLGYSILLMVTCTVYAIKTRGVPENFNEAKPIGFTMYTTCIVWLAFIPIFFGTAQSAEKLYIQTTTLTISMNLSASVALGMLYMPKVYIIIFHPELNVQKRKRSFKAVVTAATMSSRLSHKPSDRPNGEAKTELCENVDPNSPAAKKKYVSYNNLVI

| Compound | EC50 [nM] |
| --- | --- |
| CC(C(=O)N[C@H]1Cc2ccccc2[C@@H]1NC(=O)OC(C)(C)C)c1ccc(OC(F)F)cc1 (stereo partly drawn) [Example 151, tert-butyl N-[(1S,2S)-2-{2-[4-(difluoromethoxy)phenyl]propanamido}-2,3-dihydro-1H-inden-1-yl]carbamate] | 441 |
| COc1cc(F)ccc1C(C)C(=O)N[C@H]1Cc2ccccc2[C@@H]1NC(=O)OC(C)(C)C (stereo partly drawn) [Example 152, tert-butyl N-[(1S,2S)-2-[2-(4-fluoro-2-methoxyphenyl)propanamido]-2,3-dihydro-1H-inden-1-yl]carbamate] | 183 |
| CC(C(=O)N[C@H]1Cc2ccccc2[C@@H]1NC(=O)OC(C)(C)C)c1ccc(F)cc1Cl (stereo partly drawn) [Example 153, tert-butyl N-[(1S,2S)-2-[2-(2-chloro-4-fluorophenyl)propanamido]-2,3-dihydro-1H-inden-1-yl]carbamate] | 63 |
| CN[C@@H]1c2ccccc2C[C@H]1NC(=O)[C@H](C)c1ccc(F)cc1 [Example 155, (2R)-2-(4-fluorophenyl)-N-[(1R,2R)-1-(methylamino)-2,3-dihydro-1H-inden-2-yl]propanamide] | 2220 |
| CN[C@@H]1c2ccccc2C[C@@H]1NC(=O)[C@@H](C)c1ccc(F)cc1 [Example 160, (2S)-2-(4-fluorophenyl)-N-[(1R,2S)-1-(methylamino)-2,3-dihydro-1H-inden-2-yl]propanamide] | 5940 |

The remaining compounds from weak to strong by EC50, led by results:

| EC50 [nM] | Compound |
| --- | --- |
| 1380 | CN[C@H]1c2ccccc2C[C@@H]1NC(=O)[C@H](C)c1ccc(F)cc1 [Example 157, (2R)-2-(4-fluorophenyl)-N-[(1S,2S)-1-(methylamino)-2,3-dihydro-1H-inden-2-yl]propanamide] |
| 326 | CC(C(=O)N[C@H]1Cc2ccccc2[C@@H]1NC(=O)OC(C)(C)C)c1ccc(F)cc1C(F)(F)F (stereo partly drawn) [Example 154, tert-butyl N-[(1S,2S)-2-{2-[4-fluoro-2-(trifluoromethyl)phenyl]propanamido}-2,3-dihydro-1H-inden-1-yl]carbamate] |
